Data from publication PMC4077706, “Lifting the Mask: Identification of New Small Molecule Inhibitors of Uropathogenic Escherichia coli Group 2 Capsule Biogenesis” (PLoS ONE, 2014).

Assays:
[1] = molecular target: Transporter, Dopamine (DAT) (Homo sapiens, UniProt Q01959); assay type: binding; parameters: host or cells: CHO-K1; details: 10 µM
[2] = test system: Bladder carcinoma 5637 cells; assay type: cell-based
Procedure: Testing was performed essentially as previously described, [44]. Concentration-response testing was performed over a range 0.58–300 µM in a […] plate format. Bladder carcinoma 5637 cells (ATCC HTB-9) were added to the compounds, and 72 hrs later cell viability was measured using CellTiter Glo (Promega). […] Hyamine was used as a positive cytotoxic control. All wells contained 0.5% DMSO.

Muscarinic M1 = molecular target: T1, Muscarinic M1 (Homo sapiens, UniProt P11229); assay: Radioligand binding 252610; details: 10 µM
T1 construct: host or cells: CHO-K1 cells

Thyroid Hormone = Thyroid Hormone (Rattus norvegicus, UniProt P18113); assay type: binding; details: 10 µM
[3] = molecular target: T2, Transporter, Serotonin (5-Hydroxytryptamine) (SERT) (Homo sapiens, UniProt P31645); assay type: binding; details: 10 µM
T2 construct: host or cells: HEK-293

[4] = molecular target: Calcium Channel L-Type, Dihydropyridine (Rattus norvegicus, UniProt P22002); assay type: binding; details: 10 µM
Glucocorticoid = Glucocorticoid (Homo sapiens, UniProt P04150); assay: Radioligand binding 232030; parameters: host or cells: insect cells; details: 10 µM
[5] = molecular target: T3, Leukotriene, Cysteinyl CysLT1 (Homo sapiens, UniProt Q9Y271); assay: Radioligand binding 250460; details: 10 µM
T3 construct: host or cells: CHO-K1 cells

Glutamate, NMDA, Agonism = Glutamate, NMDA, Agonism (Rattus norvegicus, UniProt Q00959); assay: Radioligand binding 232810; details: 10 µM
Dopamine D4.2 = molecular target: T4, Dopamine D4.2 (Homo sapiens, UniProt P21917, DEL265-296); assay type: binding; details: 10 µM
T4 construct: host or cells: CHO-K1 cells

Imidazoline I2, Central = assay: Radioligand binding 241000; parameters: species or system rat; details: 10 µM
[6] = Human
Interleukin IL-1 = molecular target: T5, Interleukin IL-1 (Mus musculus, UniProt P13504); assay: Radioligand binding 243520; details: 10 µM
T5 construct: Mouse 3T3-SWISS cells; host or cells: Swiss 3T3 mouse fibroblasts

Prostanoid EP4 = molecular target: T6, Prostanoid EP4 (Homo sapiens, UniProt P35408); assay: Radioligand binding 268420; details: 10 µM
T6 construct: host or cells: Chem-1

[7] = molecular target: T7, Epidermal Growth Factor (EGF) (Homo sapiens, UniProt P00533); assay: Radioligand binding 225510; details: 10 µM
T7 construct: Human A431 cells; host or cells: A431 cells

Adenosine A2A = molecular target: T8, Adenosine A2A (Homo sapiens, UniProt P29274); assay: Radioligand binding 200610; details: 10 µM
T8 construct: host or cells: HEK-293 cells

GABAB1A = molecular target: T9, GABAB1A (Homo sapiens, UniProt Q9UBS5); assay: Radioligand binding 228610; details: 10 µM
T9 construct: host or cells: CHO cells

[8] = test system: Glutamate, NMDA, Phencyclidine; assay: Radioligand binding 233000; parameters: species or system rat; details: 10 µM
Cannabinoid CB1 = Cannabinoid CB1 (Homo sapiens, UniProt P21554); assay type: binding; details: 10 µM
[9] = test system: E. coli strains 536 (K15), CFT073 (K2), DS17 (K5), UTI89 (K1); assay: Visualization of capsule using Alcian blue staining; assay type: cell-based, Escherichia coli; details: 200 µM
Rolipram = assay: Radioligand binding 270000; parameters: species or system rat; details: 10 µM
Endothelin ETA = molecular target: T10, Endothelin ETA (Homo sapiens, UniProt P25101); assay type: binding; details: 10 µM
T10 construct: host or cells: CHO-K1 cells

Phorbol Ester = assay: Radioligand binding 264500; parameters: species or system mouse; details: 10 µM
Dopamine D2S = Dopamine D2S (Homo sapiens, UniProt P14416); assay type: binding; parameters: host or cells: CHO cells; details: 10 µM
Endothelin ETB = molecular target: T11, Endothelin ETB (Homo sapiens, UniProt P24530); assay type: binding; details: 10 µM
T11 construct: host or cells: CHO-K1 cells

Melatonin MT1 = molecular target: T12, Melatonin MT1 (Homo sapiens, UniProt P48039); assay type: binding; details: 10 µM
T12 construct: host or cells: CHO-K1 cells

[10] = test system: K1 antigen of E. coli UTI89; assay: K1 antigen dot blot; assay type: cell-based, Escherichia coli; details: 100 µM
Procedure: K1 antigen was detected by dot blot assays of culture extracts probed with anti-K1 H46 serum. The assay was performed as previously described. The experiment was repeated twice with similar results, and a representative dot blot is shown.

Glutamate, Kainate = assay: Radioligand binding 232700; parameters: species or system rat; details: 10 µM
Histamine H3 = molecular target: T13, Histamine H3 (Homo sapiens, UniProt Q9Y5N1); assay: Radioligand binding 239820; details: 10 µM
T13 construct: host or cells: CHO-K1 cells

Adrenergic β2 = molecular target: T14, Adrenergic β2 (Homo sapiens, UniProt P07550); assay type: binding; details: 10 µM
T14 construct: host or cells: CHO cells

Adenosine A1 = molecular target: T15, Adenosine A1 (Homo sapiens, UniProt P30542); assay: Radioligand binding 200510; details: 10 µM
T15 construct: host or cells: CHO cells

Purinergic P2Y = assay: Radioligand binding 268810; parameters: species or system rat; details: 10 µM
Opiate δ1 (OP1, DOP) = Opiate δ1 (OP1, DOP) (Homo sapiens, UniProt P41143); assay type: binding; parameters: host or cells: HEK-293 cells; details: 10 µM
Potassium Channel [KATP] = molecular target: T16, Potassium Channel [KATP] (Cricetus cricetus, UniProt Q09427); assay type: binding, hamster; details: 10 µM
T16 construct: Hamster pancreatic HIT-T15 beta; host or cells: HIT-T15 hamster pancreatic beta cells

Estrogen ERα = molecular target: T17, Estrogen ERα (Homo sapiens, UniProt P03372); assay type: binding; details: 10 µM
T17 construct: host or cells: insect Sf9 cells

[11] = Mouse
Opiate µ(OP3, MOP) = molecular target: T18, Opiate µ(OP3, MOP) (Homo sapiens, UniProt P35372); assay type: binding; details: 10 µM
T18 construct: host or cells: CHO-K1 cells
T18 sequence (P35372 whole entry): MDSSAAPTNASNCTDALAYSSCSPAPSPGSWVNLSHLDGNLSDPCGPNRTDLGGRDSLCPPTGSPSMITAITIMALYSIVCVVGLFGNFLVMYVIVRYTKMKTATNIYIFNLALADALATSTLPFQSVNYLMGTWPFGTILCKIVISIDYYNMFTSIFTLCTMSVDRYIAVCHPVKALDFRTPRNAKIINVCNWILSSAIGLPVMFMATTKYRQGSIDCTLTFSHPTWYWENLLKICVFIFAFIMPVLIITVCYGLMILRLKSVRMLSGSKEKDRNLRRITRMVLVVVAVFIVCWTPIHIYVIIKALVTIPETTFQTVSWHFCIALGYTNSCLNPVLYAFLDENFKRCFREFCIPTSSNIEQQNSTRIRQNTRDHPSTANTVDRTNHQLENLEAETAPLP

T5 sequence (P13504 20-576): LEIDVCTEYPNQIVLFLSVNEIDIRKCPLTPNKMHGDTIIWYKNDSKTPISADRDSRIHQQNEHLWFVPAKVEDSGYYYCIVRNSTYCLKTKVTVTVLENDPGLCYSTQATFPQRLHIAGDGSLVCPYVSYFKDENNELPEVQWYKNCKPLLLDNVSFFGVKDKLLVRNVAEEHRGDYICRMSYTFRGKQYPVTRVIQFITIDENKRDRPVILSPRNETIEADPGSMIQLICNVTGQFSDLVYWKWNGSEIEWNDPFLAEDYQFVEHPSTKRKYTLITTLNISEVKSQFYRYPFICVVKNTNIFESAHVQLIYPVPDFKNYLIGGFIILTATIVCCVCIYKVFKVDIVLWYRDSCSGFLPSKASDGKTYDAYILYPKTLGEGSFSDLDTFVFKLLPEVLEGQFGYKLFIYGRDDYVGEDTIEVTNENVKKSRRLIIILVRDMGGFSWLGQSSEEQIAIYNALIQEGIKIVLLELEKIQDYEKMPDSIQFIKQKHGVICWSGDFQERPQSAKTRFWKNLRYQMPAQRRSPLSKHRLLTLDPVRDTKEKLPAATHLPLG
T13 sequence (Q9Y5N1 whole entry): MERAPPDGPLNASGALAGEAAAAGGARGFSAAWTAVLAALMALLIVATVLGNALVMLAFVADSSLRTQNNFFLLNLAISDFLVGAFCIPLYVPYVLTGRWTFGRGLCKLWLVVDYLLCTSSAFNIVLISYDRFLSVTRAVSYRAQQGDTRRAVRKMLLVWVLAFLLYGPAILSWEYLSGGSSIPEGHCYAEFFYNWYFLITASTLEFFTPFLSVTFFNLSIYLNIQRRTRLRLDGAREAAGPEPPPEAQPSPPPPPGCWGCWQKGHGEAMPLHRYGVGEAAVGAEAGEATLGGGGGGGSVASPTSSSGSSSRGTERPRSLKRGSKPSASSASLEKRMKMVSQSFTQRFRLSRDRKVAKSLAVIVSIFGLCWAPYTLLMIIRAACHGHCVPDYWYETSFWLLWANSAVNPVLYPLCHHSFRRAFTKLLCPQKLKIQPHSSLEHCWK
Transporter, Dopamine (DAT), sequence (Q01959 whole entry): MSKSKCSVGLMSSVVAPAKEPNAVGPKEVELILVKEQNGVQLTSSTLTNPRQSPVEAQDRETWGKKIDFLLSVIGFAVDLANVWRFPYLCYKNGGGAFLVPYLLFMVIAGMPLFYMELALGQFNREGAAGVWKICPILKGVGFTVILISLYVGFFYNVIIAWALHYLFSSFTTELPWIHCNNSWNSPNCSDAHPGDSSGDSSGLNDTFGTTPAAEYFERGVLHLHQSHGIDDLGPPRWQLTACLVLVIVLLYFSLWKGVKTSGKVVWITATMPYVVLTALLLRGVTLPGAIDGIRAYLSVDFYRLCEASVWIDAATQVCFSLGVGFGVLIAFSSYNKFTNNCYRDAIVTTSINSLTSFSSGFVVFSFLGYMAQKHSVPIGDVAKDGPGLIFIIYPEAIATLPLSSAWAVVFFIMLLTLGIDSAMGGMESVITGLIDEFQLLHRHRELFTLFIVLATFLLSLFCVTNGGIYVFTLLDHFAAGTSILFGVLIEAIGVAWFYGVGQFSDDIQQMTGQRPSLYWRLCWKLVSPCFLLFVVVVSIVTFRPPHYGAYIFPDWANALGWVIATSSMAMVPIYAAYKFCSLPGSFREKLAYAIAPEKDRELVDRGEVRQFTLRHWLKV
T14 sequence (P07550 whole entry): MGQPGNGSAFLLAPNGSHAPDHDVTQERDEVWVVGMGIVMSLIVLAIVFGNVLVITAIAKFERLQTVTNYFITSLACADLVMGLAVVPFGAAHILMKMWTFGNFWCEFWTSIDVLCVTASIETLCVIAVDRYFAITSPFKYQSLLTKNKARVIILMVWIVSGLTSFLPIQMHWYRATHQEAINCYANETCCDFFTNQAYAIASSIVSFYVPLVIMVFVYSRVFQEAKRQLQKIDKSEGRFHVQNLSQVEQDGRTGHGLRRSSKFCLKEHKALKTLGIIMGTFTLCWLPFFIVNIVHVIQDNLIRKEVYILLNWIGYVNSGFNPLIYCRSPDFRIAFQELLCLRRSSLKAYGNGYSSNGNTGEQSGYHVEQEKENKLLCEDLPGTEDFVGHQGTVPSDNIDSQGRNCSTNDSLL
T16 sequence (Q09427 whole entry): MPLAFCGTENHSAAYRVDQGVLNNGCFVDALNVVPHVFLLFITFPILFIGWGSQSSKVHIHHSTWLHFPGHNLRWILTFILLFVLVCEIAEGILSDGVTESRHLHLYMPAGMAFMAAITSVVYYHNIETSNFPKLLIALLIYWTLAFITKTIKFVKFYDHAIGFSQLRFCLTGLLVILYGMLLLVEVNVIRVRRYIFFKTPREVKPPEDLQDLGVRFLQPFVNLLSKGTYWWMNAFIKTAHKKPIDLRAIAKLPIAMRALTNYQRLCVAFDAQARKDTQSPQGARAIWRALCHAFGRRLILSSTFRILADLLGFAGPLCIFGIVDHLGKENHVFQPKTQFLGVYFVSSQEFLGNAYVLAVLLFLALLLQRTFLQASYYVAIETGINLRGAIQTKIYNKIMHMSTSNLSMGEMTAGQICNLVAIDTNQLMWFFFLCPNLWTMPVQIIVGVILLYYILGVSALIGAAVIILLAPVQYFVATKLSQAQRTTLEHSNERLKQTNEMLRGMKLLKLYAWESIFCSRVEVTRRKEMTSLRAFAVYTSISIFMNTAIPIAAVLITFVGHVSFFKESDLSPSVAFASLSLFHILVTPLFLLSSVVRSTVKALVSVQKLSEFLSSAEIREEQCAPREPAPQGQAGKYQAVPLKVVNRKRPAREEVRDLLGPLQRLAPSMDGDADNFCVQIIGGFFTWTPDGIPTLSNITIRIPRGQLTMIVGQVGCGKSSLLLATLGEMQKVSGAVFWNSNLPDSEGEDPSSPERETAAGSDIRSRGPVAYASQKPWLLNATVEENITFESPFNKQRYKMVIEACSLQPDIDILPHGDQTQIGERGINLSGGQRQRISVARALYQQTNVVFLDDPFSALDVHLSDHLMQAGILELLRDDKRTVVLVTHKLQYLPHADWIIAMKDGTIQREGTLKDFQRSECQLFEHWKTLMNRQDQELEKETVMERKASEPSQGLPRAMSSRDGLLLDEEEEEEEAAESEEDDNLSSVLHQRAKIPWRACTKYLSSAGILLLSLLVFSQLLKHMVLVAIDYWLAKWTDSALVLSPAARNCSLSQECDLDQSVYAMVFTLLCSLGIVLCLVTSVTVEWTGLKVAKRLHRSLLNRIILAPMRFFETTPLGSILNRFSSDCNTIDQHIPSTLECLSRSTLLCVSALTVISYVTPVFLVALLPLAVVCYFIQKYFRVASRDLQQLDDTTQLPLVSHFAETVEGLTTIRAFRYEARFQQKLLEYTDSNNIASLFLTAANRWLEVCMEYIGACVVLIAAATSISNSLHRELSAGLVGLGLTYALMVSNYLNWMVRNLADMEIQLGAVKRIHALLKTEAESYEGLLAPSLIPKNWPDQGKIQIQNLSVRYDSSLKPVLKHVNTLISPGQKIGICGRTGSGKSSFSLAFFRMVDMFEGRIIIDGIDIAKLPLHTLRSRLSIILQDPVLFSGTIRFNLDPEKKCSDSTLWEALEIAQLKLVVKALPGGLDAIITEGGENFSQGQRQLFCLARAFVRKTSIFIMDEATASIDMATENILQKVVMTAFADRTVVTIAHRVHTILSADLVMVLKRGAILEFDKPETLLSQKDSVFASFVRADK
Opiate δ1 (OP1, DOP), sequence (P41143 whole entry): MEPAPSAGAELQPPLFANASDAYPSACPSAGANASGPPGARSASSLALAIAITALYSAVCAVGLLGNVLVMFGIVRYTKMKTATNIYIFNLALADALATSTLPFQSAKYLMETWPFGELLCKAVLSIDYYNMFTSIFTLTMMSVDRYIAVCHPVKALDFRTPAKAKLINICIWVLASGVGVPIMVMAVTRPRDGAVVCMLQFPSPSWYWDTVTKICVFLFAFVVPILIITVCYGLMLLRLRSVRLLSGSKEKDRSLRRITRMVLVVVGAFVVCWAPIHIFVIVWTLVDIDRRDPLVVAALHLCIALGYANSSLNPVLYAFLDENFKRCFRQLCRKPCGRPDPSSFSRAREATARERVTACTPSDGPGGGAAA
T2 sequence (P31645 whole entry): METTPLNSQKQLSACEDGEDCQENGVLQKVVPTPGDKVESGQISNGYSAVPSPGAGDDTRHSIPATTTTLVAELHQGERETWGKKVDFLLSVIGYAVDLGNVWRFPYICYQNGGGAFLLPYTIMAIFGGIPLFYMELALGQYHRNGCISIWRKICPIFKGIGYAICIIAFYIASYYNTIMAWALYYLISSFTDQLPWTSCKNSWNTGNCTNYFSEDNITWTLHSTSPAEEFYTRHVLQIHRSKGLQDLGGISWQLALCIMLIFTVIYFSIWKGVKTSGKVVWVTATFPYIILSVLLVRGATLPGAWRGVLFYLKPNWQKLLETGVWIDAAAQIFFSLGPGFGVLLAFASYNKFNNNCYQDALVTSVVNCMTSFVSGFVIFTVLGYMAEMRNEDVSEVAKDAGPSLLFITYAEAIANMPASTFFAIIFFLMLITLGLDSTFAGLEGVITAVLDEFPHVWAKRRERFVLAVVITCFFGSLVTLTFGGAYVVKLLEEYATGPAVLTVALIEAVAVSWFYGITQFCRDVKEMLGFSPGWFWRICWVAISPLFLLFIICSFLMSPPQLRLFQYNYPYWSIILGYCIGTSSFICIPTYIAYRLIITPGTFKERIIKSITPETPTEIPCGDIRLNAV

CCOc1ccc(-c2cc(NC(=O)c3c(F)cccc3F)c(C(=O)O)s2)cc1 [DU011]
% Inh. [1]: -13%
Selectivity (CC50/IC50) [2]: 13.3
CC50 ([2]; 5637 cells, 72 hrs, ± SEM, read-out: Cytotoxicity (CC50)): 51.6 ± 13.6 µM
% Inh. (Muscarinic M1): 10%
% Inh. (Thyroid Hormone): 20%
% Inh. [3]: 5%
% Inh. [4]: 18%
% Inh. (Glucocorticoid): 16%
% Inh. [5]: 19%
% Inh. (Glutamate, NMDA, Agonism): -8%
% Inh. (Dopamine D4.2): 0%
% Inh. (Imidazoline I2, Central): -23%
Plasma Stability, percent remaining at 3 hrs [6]: 95.31%
% Inh. (Interleukin IL-1): 4%
% Inh. (Prostanoid EP4): -4%
% Inh. [7]: 8%
% Inh. (Adenosine A2A): -6%
% Inh. (GABAB1A): 7%
% Inh. [8]: 2%
% Inh. (Cannabinoid CB1): 20%
reduction in capsular material from CFT073 ([9]; CFT073 (K2 serotype)): slightly less than the other serotypes tested
capsular material, alcian blue stained gel ([9]; strains 536, CFT073, DS17, UTI89): capsule was reduced in each strain
% Inh. (Rolipram): 3%
% Inh. (Endothelin ETA): -4%
% Inh. (Phorbol Ester): 1%
% Inh. (Dopamine D2S): -6%
% Inh. (Endothelin ETB): 3%
% Inh. (Melatonin MT1): 7%
K1 reactive material, whole-cell anti-K1 dot blot [10]: reduces K1 reactive material to levels comparable to those of genetic capsule mutants
% Inh. (Glutamate, Kainate): 3%
% Inh. (Histamine H3): 13%
% Inh. (Adrenergic β2): 8%
% Inh. (Adenosine A1): -17%
% Inh. (Purinergic P2Y): 1%
% Inh. (Opiate δ1 (OP1, DOP)): 10%
% Inh. (Potassium Channel [KATP]): 12%
% Inh. (Estrogen ERα): 13%
Hepatic Microsome Stability, percent remaining at 1 hr [11]: 74.32%
% Inh. (Opiate µ(OP3, MOP)): 1%
